Experimental data taken from publication PMC10354055, “An optimized Nurr1 agonist provides disease-modifying effects in Parkinson’s disease models” (Nature Communications, 2023).
Values joined by “and” are separate entries in the source; they are usually repeats but may differ in a detail not shown here. Equal values may be shown once.

Assays:
Test in all cases: Luciferase assay with point-mutants of Nurr1-LBD, SK-N-BE(2)C cells;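 note: Firefly luciferase normalized to beta-galactosidase activity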
Type in all cases: cell-based
[1] = biological target: T1, Nurr1-LBD point mutants (Mus musculus, UniProt Q06219); details: Supplementary Fig. 2, WT
T1 construct: expressed in transfected cells; host or cells: SK-N-BE(2)C
T1 sequence (Q06219 whole entry, change not shown, the tested form may be a part): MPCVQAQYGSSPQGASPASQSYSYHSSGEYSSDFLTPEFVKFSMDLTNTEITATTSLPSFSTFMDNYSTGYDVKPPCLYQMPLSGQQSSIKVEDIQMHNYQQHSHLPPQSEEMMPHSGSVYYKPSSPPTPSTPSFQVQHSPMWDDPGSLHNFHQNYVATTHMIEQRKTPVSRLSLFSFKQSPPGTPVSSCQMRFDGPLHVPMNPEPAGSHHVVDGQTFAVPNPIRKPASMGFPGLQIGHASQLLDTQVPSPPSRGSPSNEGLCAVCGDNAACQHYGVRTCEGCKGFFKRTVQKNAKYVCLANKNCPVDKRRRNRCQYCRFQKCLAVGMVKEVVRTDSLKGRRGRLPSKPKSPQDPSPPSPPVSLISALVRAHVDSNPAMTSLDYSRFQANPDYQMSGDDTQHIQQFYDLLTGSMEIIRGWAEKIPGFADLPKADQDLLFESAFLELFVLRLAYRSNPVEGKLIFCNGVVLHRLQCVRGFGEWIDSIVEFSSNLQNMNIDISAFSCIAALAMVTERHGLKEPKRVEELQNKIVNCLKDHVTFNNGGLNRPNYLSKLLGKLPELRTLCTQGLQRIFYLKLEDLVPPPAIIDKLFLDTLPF
Description: (§1) Nurr1 transactivity was normalized to β-galactosidase activity.
(§2) Nurr1 mutants were generated using the QuikChange ǁ XL site-directed mutagenesis kit (Agilent Technologies) according to the manufacturer’s instruction. Mutagenesis reactions were carried out on the plasmid of mouse Nurr1 cloned into pcDNA3.1 backbone, and then verified by sequencing.

[2] = biological target: T2, Nurr1-LBD point mutants (Mus musculus, UniProt Q06219, L593A); details: Supplementary Fig. 2, L593A
T2 construct: expressed in transfected cells; host or cells: SK-N-BE(2)C
T2 sequence (Q06219 whole entry L593A, the tested form may be a part): as the sequence (Q06219 whole entry, change not shown, the tested form may be a part) above, with L593A counted along it
Description: as §1, §2

[3] = biological target: T3, Nurr1-LBD point mutants (Mus musculus, UniProt Q06219, K590A); details: Supplementary Fig. 2, K590A
T3 construct: expressed in transfected cells; host or cells: SK-N-BE(2)C
T3 sequence (Q06219 whole entry K590A, the tested form may be a part): as the sequence (Q06219 whole entry, change not shown, the tested form may be a part) above, with K590A counted along it
Description: as §1, §2

[4] = biological target: T4, Nurr1-LBD point mutants (Mus musculus, UniProt Q06219, D594A); details: Supplementary Fig. 2, D594A
T4 construct: expressed in transfected cells; host or cells: SK-N-BE(2)C
T4 sequence (Q06219 whole entry D594A, the tested form may be a part): as the sequence (Q06219 whole entry, change not shown, the tested form may be a part) above, with D594A counted along it
Description: as §1, §2

[5] = biological target: T5, Nurr1-LBD point mutants (Mus musculus, UniProt Q06219, S441A); details: Supplementary Fig. 2, S441A
T5 construct: expressed in transfected cells; host or cells: SK-N-BE(2)C
T5 sequence (Q06219 whole entry S441A, the tested form may be a part): as the sequence (Q06219 whole entry, change not shown, the tested form may be a part) above, with S441A counted along it
Description: as §1, §2

## CCN(CC)Cc1cc(Nc2ccnc3cc(Cl)ccc23)ccc1O [AQ, amodiaquine]
[1]
  Luciferase activity (fold): 16.1226 fold and 16.0906 fold and 15.547 fold
[2]
  Luciferase activity (fold): 14.8074 fold and 14.193 fold and 15.2957 fold
[3]
  Luciferase activity (fold): 14.5075 fold and 14.599 fold and 17.3856 fold
[4]
  Luciferase activity (fold): 15.1749 fold and 15.4902 fold and 14.0814 fold
[5]
  Luciferase activity (fold): 14.9384 fold and 15.2215 fold and 14.6264 fold
